Common to all, as to format: cell-based
Assay [1] deals with T1, hGABAA α1β3γ2 (Homo sapiens, UniProt P14867+P18507+P28472). In words: hGABAA IonFlux HT PAM Assay, α1β3γ2. Conditions: for Mean Maximal Effect (% of Control): normalized to baseline peak current induced by EC20 GABA (1 μM) for 2 seconds. The text has this:
(§1) Ligand-gated ion channels targeted were hGABAA α1β3γ2 and hGABAA α2β3γ2.
(§2) Electrophysiological assays conducted to profile nine (9) compounds for activities on the on channel targets listed above for Positive Allosteric Modulator (PAM) activities using the IonFlux HT electrophysiological platform.
The parameters measured are described in the Data Analysis section.
(§3) All wells included a final DMSO concentration of 0.33% including all control wells.
(§4) All recordings were obtained from a holding potential of −60 mV. The compound addition sequence that was used for all additions was the same for all assays. […] The process was repeated with the next ascending concentration of test compound (FIG. 1).
(§5) All data were first exported to an Excel compatible data file and then analyzed using Graph Pad Prism software.

In the next assay the target is hGABAA α2β3γ2 (Homo sapiens, UniProt P18507+P28472+P47869). In words: hGABAA IonFlux HT PAM Assay, α2β3γ2. Conditions: for Mean Maximal Effect (% of Control): normalized to baseline peak current induced by EC20 GABA (0.8 μM) for 2 seconds; for EC50: read-out: Estimated EC50.
Sequence of hGABAA α2β3γ2 (P47869 29-451): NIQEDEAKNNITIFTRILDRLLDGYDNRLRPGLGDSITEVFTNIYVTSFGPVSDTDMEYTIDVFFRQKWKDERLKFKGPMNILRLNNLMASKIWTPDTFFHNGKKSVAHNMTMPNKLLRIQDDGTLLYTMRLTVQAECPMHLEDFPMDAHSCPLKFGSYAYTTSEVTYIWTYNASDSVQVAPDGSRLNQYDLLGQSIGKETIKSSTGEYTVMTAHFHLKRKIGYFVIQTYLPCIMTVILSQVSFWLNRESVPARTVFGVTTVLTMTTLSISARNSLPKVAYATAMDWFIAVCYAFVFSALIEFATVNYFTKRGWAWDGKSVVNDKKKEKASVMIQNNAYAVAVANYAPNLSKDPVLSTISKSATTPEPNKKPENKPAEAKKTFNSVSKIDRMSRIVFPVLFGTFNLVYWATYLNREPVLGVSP
Sequence of hGABAA α2β3γ2 (P28472 26-473): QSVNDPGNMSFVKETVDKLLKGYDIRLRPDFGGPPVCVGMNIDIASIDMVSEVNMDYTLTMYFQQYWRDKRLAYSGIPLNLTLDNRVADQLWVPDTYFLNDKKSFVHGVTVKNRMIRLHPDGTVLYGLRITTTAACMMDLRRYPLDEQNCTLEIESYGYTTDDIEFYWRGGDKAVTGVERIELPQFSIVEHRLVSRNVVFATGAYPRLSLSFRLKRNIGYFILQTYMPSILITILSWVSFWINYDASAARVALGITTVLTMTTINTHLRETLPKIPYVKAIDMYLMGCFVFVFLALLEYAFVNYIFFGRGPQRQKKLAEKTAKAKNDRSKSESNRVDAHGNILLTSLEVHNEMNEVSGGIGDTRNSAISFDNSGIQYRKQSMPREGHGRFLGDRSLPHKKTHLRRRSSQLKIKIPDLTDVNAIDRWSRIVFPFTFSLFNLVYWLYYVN
Sequence of hGABAA α2β3γ2 (P18507 40-475): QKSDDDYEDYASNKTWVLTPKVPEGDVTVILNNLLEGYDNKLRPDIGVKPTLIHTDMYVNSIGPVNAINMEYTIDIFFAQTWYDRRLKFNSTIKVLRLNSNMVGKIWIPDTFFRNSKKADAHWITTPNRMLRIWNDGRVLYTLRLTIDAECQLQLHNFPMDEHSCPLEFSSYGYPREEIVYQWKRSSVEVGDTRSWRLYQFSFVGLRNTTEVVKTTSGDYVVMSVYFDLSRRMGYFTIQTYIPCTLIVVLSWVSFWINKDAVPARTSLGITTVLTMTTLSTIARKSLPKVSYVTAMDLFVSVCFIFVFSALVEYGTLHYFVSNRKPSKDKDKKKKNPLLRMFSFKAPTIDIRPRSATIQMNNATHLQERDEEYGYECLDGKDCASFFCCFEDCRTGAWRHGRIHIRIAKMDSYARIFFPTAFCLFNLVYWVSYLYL
Excerpt: as §1, §2
The parameters measured are described in the Data Analysis section. […] Open circles represent data that has been excluded from the curve fitting. Where no curve fit was possible, n/c (not calculable) is listed.
as §3, §4, §5

The target in assay [2] is T1, hGABAA α1β3γ2. In words: hGABAA α1β3γ2 IonFlux HT Agonist Assay. On the set-up: activation of hGABAA α1β3γ2 ion channel currents / activation: dose or concentration left out as unconfirmed. As for the experimental part:
Ligand-gated ion channel targets were hGABAA α2β3γ2 and hGABAA α1β3γ2. Electrophysiological assays conducted to profile two compounds for agonist activities on hGABAA α2β3γ2 and seven compounds for agonist activities on hGABAA α1β3γ2 using the IonFlux HT electrophysiological platform.
The parameters measured are described in the Data Analysis section. […] Note: The test compounds was applied over two (2) ‘experimental patterns’ in increasing concentrations.
The supplied compound was prepared in DMSO to concentrations that were 300× the final assay concentrations. Aliquots were taken out and diluted 300× into external buffer to give the final assay concentration. At wells included a final DMSO concentration of 0.33% including all control wets.
All recordings were obtained from a holding potential of −60 mV. The compound addition sequence that was used for all additions was the same for all assays. […] Each test concentration of compound was applied for 2 seconds followed by 60 seconds wash. The process was repeated with the next ascending concentration of test compound. The test compounds were applied over two (2) ‘experimental patterns’ in increasing concentrations (FIG. 11).
AM data were first exported to an Excel compatible data file and then analyzed using Graph Pad Prism software.

[3] abbreviates: agonist activation of channel currents, read-out: Estimated EC50.
[4] abbreviates: read-out: Normalized Percentage Activation Mean.
Where [5] appears, read: positive modulation of EC20 GABA current.

We go through 4 compounds from patent US12084451B2, “Compositions and methods for reducing tactile dysfunction, anxiety, and social impairment” (President and Fellows of Harvard College, priority 2018, dated 2024).

What is called EC50 is the concentration that produces a half-maximal response.

Where two headings read alike, the source gives them in different places.

T1 sequence (P14867 28-456): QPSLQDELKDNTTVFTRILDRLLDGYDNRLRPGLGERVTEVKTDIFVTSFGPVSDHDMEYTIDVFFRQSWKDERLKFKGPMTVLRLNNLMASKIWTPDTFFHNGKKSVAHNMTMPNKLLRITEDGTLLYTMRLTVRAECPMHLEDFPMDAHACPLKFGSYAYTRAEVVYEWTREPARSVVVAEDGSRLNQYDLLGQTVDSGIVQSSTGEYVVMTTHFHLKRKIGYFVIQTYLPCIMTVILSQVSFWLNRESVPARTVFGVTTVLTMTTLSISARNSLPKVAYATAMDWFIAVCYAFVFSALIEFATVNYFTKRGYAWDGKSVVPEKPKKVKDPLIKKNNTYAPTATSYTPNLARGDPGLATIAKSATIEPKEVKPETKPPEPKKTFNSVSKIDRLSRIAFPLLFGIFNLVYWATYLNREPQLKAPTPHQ
T1 sequence (P28472 26-473): as the sequence (P28472 26-473) above
T1 sequence (P18507 40-475): as the sequence (P18507 40-475) above

Consider `CCN(CCNC)C(=O)CC1c2nccnc2C(=O)N1c1ccc(Cl)cn1` (centres unmarked) [Compound 5], for which, at hGABAA α1β3γ2 [1], the “Mean Maximal Effect (% of Control)” value is on record as 136 % of Control. For the same compound, at hGABAA α1β3γ2 [1] (read-out: Estimated EC50), the concentration for a half-maximal effect (EC50) is 3.16 µM. Further, on hGABAA α2β3γ2, the “Mean Maximal Effect (% of Control)” value is given as 126 % of Control and the half-maximal effective concentration (EC50) is 8.7 µM. In addition, the “activation of hGABAA α1β3γ2 ion channel currents” value on hGABAA α1β3γ2 [2] is “did not activate”. Further, the EC50 on hGABAA α1β3γ2 [2] (setting [3]) is over 1000 µM. Also, at hGABAA α1β3γ2 [2] (setting [4]), the activation at 0.3 µM is 2.54%, the activation at 1 µM amounted to 2.02%, the activation at 3 µM was found to be 2.28% and the activation at 10 µM was determined as 2.45%. At hGABAA α1β3γ2 [2] (setting [4]), the activation at 30 µM was found to be 3.08%, the activation at 100 µM turned out to be 3.75%, the activation at 300 µM was 2.7% and the activation at 10000 µM was determined as 2.38%.

For the compound `CN(C)CCN(C)C(=O)CC1c2nccnc2C(=O)N1c1ccc(Cl)cn1` (centres unmarked) [Compound 6], the “Mean Maximal Effect (% of Control)” value at hGABAA α1β3γ2 [1] is given as 130 % of Control. Moreover, the “Estimated EC50” value at hGABAA α1β3γ2 [1] (setting [5]) was “n/c”. The “Mean Maximal Effect (% of Control)” value on hGABAA α2β3γ2 is 122 % of Control. On hGABAA α2β3γ2 (setting [5]), the “Estimated EC50” value is recorded as “n/c”. At hGABAA α1β3γ2 [2], the “activation of hGABAA α1β3γ2 ion channel currents” value was “did not activate”. Moreover, on hGABAA α1β3γ2 [2] (setting [3]), the EC50 is over 1000 µM. On hGABAA α1β3γ2 [2] (setting [4]), the activation turned out to be 2.08%, the activation at 0.3 µM came to 1.59%, the activation at 1 µM was found to be 2.06% and the activation at 3 µM was 1.9%. At hGABAA α1β3γ2 [2] (setting [4]), the activation at 10 µM was determined as 1.89%, the activation at 30 µM stood at 1.74%, the activation at 100 µM was determined as 1.95% and the activation at 300 µM is 2.19%.

Turning to `CCCN(CCNC)C(=O)Cc1c(-c2ccc(Cl)cc2)nc2ccc(Cl)cn12` [Compound 3], the EC50 at hGABAA α1β3γ2 [1] (Estimated EC50, positive modulation of EC20 GABA current) is 0.081 µM. For the same compound, the “Mean Maximal Effect (% of Control)” value at hGABAA α1β3γ2 [1] was 331 % of Control. The “Mean Maximal Effect (% of Control)” value on hGABAA α2β3γ2 is 240 % of Control. The EC50 at hGABAA α2β3γ2 (setting [5]) is 1.1 µM. On hGABAA α1β3γ2 [2], the half-maximal effective concentration (EC50) is over 1000 µM and the “activation of hGABAA α1β3γ2 ion channel currents” value is “did not activate”. At hGABAA α1β3γ2 [2] (setting [4]), the activation turned out to be 3.53%, the activation at 0.3 µM stood at 1.99%, the activation at 1 µM amounted to 1.9% and the activation at 3 µM is 2.32%. Further, at hGABAA α1β3γ2 [2] (setting [4]), the activation at 10 µM worked out at 6.3%, the activation at 30 µM is 2.98%, the activation at 100 µM came out at 3.63% and the activation at 300 µM worked out at 8.78%.

As for `CNCCN(C)C(=O)Cc1c(-c2ccc(C)cc2)nc2ccc(C)cn12` [Compound 1], at hGABAA α1β3γ2 [1], the “Mean Maximal Effect (% of Control)” value was 282 % of Control. Also, at hGABAA α1β3γ2 [1] (read-out: Estimated EC50), the EC50 was 0.654 µM. Besides, at hGABAA α2β3γ2, the “Mean Maximal Effect (% of Control)” value was 181 % of Control and the concentration for a half-maximal effect (EC50) is 3 µM. Moreover, the “activation of hGABAA α1β3γ2 ion channel currents” value at hGABAA α1β3γ2 [2] was “did not activate”. The EC50 on hGABAA α1β3γ2 [2] (setting [3]) was over 1000 µM. Further, on hGABAA α1β3γ2 [2] (setting [4]), the activation was determined as 4.98%, the activation at 0.3 µM amounted to 1.64%, the activation at 1 µM came out at 1.39% and the activation at 3 µM came out at 2.34%. At hGABAA α1β3γ2 [2] (setting [4]), the activation at 10 µM was determined as 6.52%, the activation at 30 µM was determined as 4.78%, the activation at 100 µM is 6.97% and the activation at 300 µM was determined as 7.15%.
